Laboratory results reported in publication PMC10675077, “Antimicrobial Properties of New Polyamines Conjugated with Oxygen-Containing Aromatic Functional Groups” (Molecules, 2023).

What was measured:
[1] = system: E. coli; assay: Lytic activity, time-kill (OD600), E. coli; type: cell-based, Escherichia coli; conditions: 5 times the MIC
Method: To determine if the compounds showing microbicidal activity induce cell lysis, the procedure described by Fleeman et al. was followed, with the modifications indicated below. The E. coli and S. aureus strains were grown as in the experiments described earlier. The cells corresponding to 1.5 units of OD600 were collected and resuspended in 1% BP after washing in the same medium. They were incubated in a final volume of 1 mL with concentrations 5 times higher than the MIC of the analysed compounds, and OD600 was monitored over time. Other antimicrobial compounds were also used in this study as controls. The experiments were performed in triplicate.

[2] = system: BY4741/PDR5; assay: Checkerboard titration synergy, BY4741/PDR5; type: cell-based, Saccharomyces cerevisiae; conditions: synergistic when FICI ≤0.5
Method: The combined antimicrobial activity of the test compounds with the antibacterial or antifungal control agents was performed under the same conditions used for the MIC determination and following the procedures described by Carton Herrán, Reis de Sá et al. and Zharkova et al.. For each experiment, 16 samples (4 rows × 4 columns) in a total volume of 0.5 mL were prepared in tubes using an array of combinations between the MIC value and 0 μg/mL of the compound to be tested in each row, and between the MIC value and 0 μg/mL of the reference drug in each column. In this way, a variety of mixtures with different concentrations of them alone or in combination was obtained. Briefly, 0.5 mL of a microorganism culture was added to each one of the samples, and after incubation for 24 h with shaking at the appropriate temperature (37 °C or 30 °C), the tubs were visually inspected, and the OD600 was measured. From this information, the fractional inhibitory concentration index (FICI) was calculated according to the formula FIC index = ([A]/[CMI A]) + ([B]/[CMI B]), where [A] and [B] are respective concentrations of tested polyamine and reference drug in their combination effectively inhibiting the growth of bacteria or yeast, and [MIC A] and [MIC B] are the individual MICs of the tested polyamine and reference drug when they are used alone. An interaction is considered synergistic when the FICI value is ≤0.5 [41, 42].
To confirm the data obtained in the checkerboard assay, 30 μL of a ten-fold dilution of the tubes containing concentrations of half of the MIC of each one of the compounds alone (polyamine to be tested and reference drug) and one fourth of the MIC of each one in combination were also spread in LB or SC-ura plates (according to the microorganism considered in each case) and incubated at 37 °C or 30 °C. The visualisation of these plates was performed after 24 or 48 h, respectively. All these experiments were carried out in triplicate.

[3] = system: yeast cells; assay: Intracellular ATP by luciferase bioluminescence, yeast; type: cell-based, Saccharomyces cerevisiae; conditions: 50-fold the MIC, overnight treatment
Method: The procedure described by Lehtinen et al. was followed, with the modifications indicated herein. In the case of bacteria, 1.5 OD600 units were incubated overnight in 1 mL of final volume with 5-fold MIC concentrations. Then, the cells were collected, washed 3 times in 20 mM phosphate buffer pH 7.4, and lysed in 200 μL of LS1 (50 mM of glucose, 25 mM of Tris-HCl pH 8.0, and 10 mM of EDTA pH 8.0) containing 5 mg/mL of lysozyme and the same volume of glass beads (425–600 μm), by stirring 10 times for 15 s each. Then, the solution was centrifuged at 14,800× g for 15 min, and the supernatant was used for a luciferase assay. For this purpose, in each well of a microtiter plate, 100 μL of luciferase assay buffer (0.015 M of MgSO4, 0.015 M of KH2PO4 pH 8, 0.004 M of EGTA pH 8, and 2 mM of DTT) was added together to a 50 μL of 0.3 mg/mL luciferin solution in 0.01% (w/v) Triton X-100 and 50 μL of the cell extract. Finally, 15 μL of a 67 μg/mL aqueous solution of luciferase was added. Light emission was immediately detected using a Luminoskan Ascent instrument (Thermo Scientific, Waltham, MA, USA) for 1 s per well. Glass beads, lysozyme, luciferin, and luciferase were purchased from Sigma-Aldrich.
[…] Then, cells were collected and washed as above and resuspended in 500 μL of LS2 (140 mM of NaCl, 1.5 mM of MgCl2, 10 mM of Tris-HCl pH 8.0, and 0.5% (v/v) NP40). Cells were lysed in the presence of 1 volume of glass beads as described above. The next steps were carried out as in the case of bacterial samples.
Experiments were carried out at least in triplicate in all cases, and control drugs and SDS (0.1% (w/v) of the final concentration) were also included.

[4] = design: method as in PMID 37335019; conditions: 298 K, 0.15 mol/dm NaCl; error in last figure in parentheses; cited from earlier work
[5] = system: human Jurkat cell line; assay: Cytotoxicity, flow cytometry viability assay with propidium iodide; type: cell-based; conditions: 24 h treatment, average of three experiments
Method in brief: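 Jurkat cells in RPMI 1640 with 5% FCS exposed to a concentration range of compound or PBS for 24 h. Dead cells scored as PI-positive events (3.75 μM PI, 5 min, room temperature) by flow cytometry, 10,000 events per sample. IC50 obtained by curve fitting; triplicates.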

| Compound | Lytic activity (OD600 over time) [1] | Synergy with Amphotericin B [2] | Synergy with Cycloheximide [2] | Intracellular ATP level relative to untreated cells [3] | Stepwise protonation constant (log K), H2L + H ⇄ H3L [4] | Stepwise protonation constant (log K), H3L + H ⇄ H4L [4] | Stepwise protonation constant (log K), L + H ⇄ HL [4] | Stepwise protonation constant (log K), LH + H ⇄ H2L [4] | IC50, cytotoxicity on the human Jurkat cell line [5] |
| --- | --- | --- | --- | --- | --- | --- | --- | --- | --- |
| c1cc2nc(c1)CNCCN(CCNCc1ccc3c(c1)OCO3)CCNC2 [Compound 5a, 2-(3,6,9-triaza-1(2,6)-pyridinacyclodecaphane-6-yl)-N-(benzo[d][1,3]dioxol-5-ylmethyl)ethan-1-amine] | do not have a lytic effect | positive results and + | positive results and + | 50–70% | – | – | – | – | – |
| Oc1ccccc1CNCCN1CCNCc2cccc(n2)CNCC1 [Compound 6a] | do not have a lytic effect | positive results and + | positive results and + | 50–70% | 7.92 (1) | 6.67 (2) | 9.93 (1) | 9.11 (1) | – |
| Oc1ccc(CNCCN2CCNCc3cccc(n3)CNCC2)cc1 [Compound 7a] | – | – | – | – | 8.516 (8) | 7.341 (9) | 10.153 (9) | 9.473 (9) | – |
| N^1-(benzo[d][1,3]dioxol-5-ylmethyl)-N^3-(2-((2-((3-((benzo[d][1,3]dioxol-5-ylmethyl)amino)propyl)amino)ethyl)(2-((3-(((2,3-dihydrobenzofuran-6-yl)methyl)amino)propyl)amino)ethyl)amino)ethyl)propane-1,3-diamine [Compound 4a] | – | positive results and + | positive results and + | – | – | – | – | – | 76.86 µg/mL |
